Results published in patent publication US20130158040A1, “DIAZAINDOLE INHIBITORS OF CRAC” (Hoffmann-La Roche Inc., priority 2011, published 2013).

tested on: Jurkat cell; assay: Jurkat IL-2 Production Assay; type: cell-based; settings: Homo sapiens; IL-2 production in Jurkat cells; 18 h~20 h incubation; serum/stimulant condition (1% FBS with PHA or 30% FBS with PMA/Ionomycin) not specified
Procedure: Jurkat IL-2 Production Assay
Jurkat cell (ATCC) was grown in RPMI 1640 with 10% FBS and 1% penicillin/streptomycin. The cell density was kept at 1.2˜1.8×10^6/mL in culture flask before seeding into culture plate, and the cell density in the plate was 0.5×10^6/[…]/well.
RPMI 1640 with 1% FBS or 30% FBS for high serum assay.
serial dilution was done in 100% DMSO, and intermediate dilution was done with RPMI 1640 medium with 1% FBS. The DMSO final concentration in culture well was 0.25%.
PHA (Sigma#L9017-10MG) was used for the assay with 1% FBS in culture medium, and added after 10 minutes exposure of cell to compound/DMSO. The PHA final concentration in culture well was 5 μg/mL. PMA (Sigma# P-8139 5MG)/Ionomycin (Sigma#10634-5MG) was used for the assay with 30% FBS in culture medium, and added at same time point as the 1% FBS culture assay. The final concentration of PMA was 50 ng/mL, and Ionomycin final concentration was 500 ng/mL.
at 37° C. with 5% CO2 and 95% humidity for 18 h˜20 h.
IC50 was calculated with the data analysis software XLfit4, General Pharmacology model 251.

Structure (SMILES)	IC50
Cc1cc(S(=O)(=O)N(C)C)ccc1-c1cnc2[nH]c(C3CCCCC3)cc2n1 [Example 7, 4-(6-cyclohexyl-5H-pyrrolo[2,3-b]pyrazin-2-yl)-N,N,3-trimethylbenzenesulfonamide]	184 nM
COC(=O)c1ccc(-c2cnc3[nH]c(-c4ccccc4Cl)cc3n2)c(C)c1 [Example 3, 4-[6-(2-Chloro-phenyl)-5H-pyrrolo[2,3-b]pyrazin-2-yl]-3-methyl-benzoic acid methyl ester]	205 nM
Cc1cc(S(=O)(=O)N(C)C)ccc1-c1ncc2[nH]c(-c3c(F)cccc3Cl)cc2n1 [Example 1, 4-[6-(2-chloro-6-fluoro-phenyl)-5H-pyrrolo[3,2-d]pyrimidin-2-yl]-3,N,N-trimethyl-benzenesulfonamide]	687 nM
Cn1nc(C(F)(F)F)cc1-c1cnc2[nH]c(C3CCCCC3)cc2n1 [Example 6, 6-Cyclohexyl-2-(1-methyl-3-(trifluoromethyl)-1H-pyrazol-5-yl)-5H-pyrrolo[2,3-b]pyrazine]	681 nM
Cn1nc(C(F)(F)F)cc1-c1cnc2[nH]c(-c3ccccc3Cl)cc2n1 [Example 2, 6-(2-Chloro-phenyl)-2-(2-methyl-5-trifluoromethyl-2H-pyrazol-3-yl)-5H-pyrrolo[2,3-b]pyrazine]	766 nM
Cc1cc(S(=O)(=O)N(C)C)ccc1-c1cnc2[nH]c(-c3ccccc3Cl)cc2n1 [Example 4, 4-(6-(2-Chlorophenyl)-5H-pyrrolo[2,3-b]pyrazin-2-yl)-N,N,3-trimethylbenzenesulfonamide]	133 nM
Cn1nc(C(F)(F)F)cc1-c1cnc2[nH]c(-c3c(F)cccc3Cl)cc2n1 [Example 5, 6-(2-chloro-6-fluorophenyl)-2-(1-methyl-3-(trifluoromethyl)-1H-pyrazol-5-yl)-5H-pyrrolo[2,3-b]pyrazine]	269 nM
